# Data from DBAASP.
# What was measured:
# Assay in all cases: ≥ marks a high value that may be exact or a test limit, other limits are often not marked, values filed in µg/mL are converted to µM
# [1] = system: Escherichia coli MG1655
# [2] = system: Pseudomonas aeruginosa ATCC 27853
# [3] = system: Staphylococcus aureus MTCC 9542
# [4] = system: Vibrio cholerae
# [5] = system: Staphylococcus aureus BCRC 10780
# [6] = system: Streptococcus pneumoniae BCRC 10794
# [7] = system: Burkholderia cepacia J2540
# [8] = system: Bacillus subtilis IFO 3134
# [9] = system: Escherichia coli IFO 12734
# [10] = system: Pseudomonas aeruginosa IFO 12582
# [11] = system: Staphylococcus aureus IFO 12732
# [12] = system: Alternaria alternata
# [13] = system: Botrytis cinerea
# [14] = system: Cladosporium herbarum
# [15] = system: Clavibacter michiganensis subsp. michiganensis DSM 46294
# [16] = system: Fusarium solani
# [17] = system: Micrococcus luteus ATCC 9341
# [18] = system: Pectobacterium carotovorum subsp. carotovorum DSM 30168
# [19] = system: Pseudomonas aeruginosa ATCC 9027
# [20] = system: Pseudomonas corrugata DSM 7228
# [21] = system: Pseudomonas syringae pv. syringae DSM 10604
# [22] = system: Pseudomonas syringae pv. tomato DC3000
# [23] = system: Staphylococcus aureus ATCC 6538
# [24] = system: Xanthomonas vesicatoria DSM 50861
# [25] = system: Cronobacter sakazakii DPC 6440
# [26] = system: Listeria monocytogenes LO28
# [27] = system: Bacillus subtilis KCTC 1918
# [28] = system: Escherichia coli KCTC 1682
# [29] = system: Pseudomonas aeruginosa KCTC 1637
# [30] = system: Salmonella typhimurium KCTC 1926
# [31] = system: Staphylococcus aureus KCTC 1621
# [32] = system: Streptococcus pyogenes KCTC 3096
# [33] = system: Escherichia coli BL21AI
# [34] = system: Micrococcus luteus ATCC 10240
compound,measurement,setting,value
CC[C@H](C)[C@@H]1NC(=O)[C@H](CCCCN)NC(=O)[C@@H](NC(=O)[C@H](CC(C)C)NC(=O)[C@@H](NC(=O)[C@H](CCC(N)=O)NC(=O)[C@@H]2CCCN2C(=O)[C@H](CC(C)C)NC(=O)[C@H](Cc2ccccc2)NC(=O)[C@H](CC(N)=O)NC(=O)[C@H](C)NC(=O)[C@H](C)NC(=O)[C@H](CC(C)C)NC(=O)CNC(=O)[C@H](C)N)[C@@H](C)CC)CSSC[C@@H](C(N)=O)NC(=O)[C@H](CCCCN)NC(=O)[C@H](CCCN=C(N)N)NC(=O)[C@H](C)NC1=O [AGLAANFLPQILCKIARKC],MIC,[1],24.6 µM
same,MIC,[2],> 49.2 µM
same,MIC,[3],24.6 µM
same,MIC,[4],12.3 µM
CSCC[C@H](NC(=O)[C@H](C)NC(=O)CNC(=O)[C@H](C)NC(=O)[C@H](Cc1cnc[nH]1)NC(=O)[C@H](Cc1ccccc1)NC(C)=O)C(N)=O [FHAGAM],MIC,[5],≥ 158 µM
same,MIC,[6],≥ 158 µM
CC[C@H](C)[C@H](NC(=O)CNC(=O)[C@H](CCCN=C(N)N)NC(=O)[C@H](CC(C)C)NC(=O)[C@H](Cc1ccccc1)NC(=O)[C@H](CC(=O)O)NC(=O)[C@H](CCCCN)NC(=O)[C@@H](NC(=O)[C@H](CCCN=C(N)N)NC(=O)[C@H](CCC(N)=O)NC(=O)[C@@H](NC(=O)[C@@H](NC(=O)[C@H](CCCN=C(N)N)NC(=O)[C@H](CCCCN)NC(=O)[C@@H](N)Cc1ccccc1)[C@@H](C)CC)C(C)C)[C@@H](C)CC)C(=O)NCC(=O)N[C@@H](CCCCN)C(=O)N[C@@H](Cc1ccccc1)C(=O)N[C@@H](CC(C)C)C(=O)N[C@@H](Cc1cnc[nH]1)C(=O)N[C@@H](CO)C(=O)N[C@@H](C)C(=O)N[C@@H](CCCCN)C(=O)N[C@@H](CCCCN)C(=O)N[C@@H](Cc1ccccc1)C(=O)O [FKRIVQRIKDFLRGIGKFLHSAKKF],MIC,[7],10.3 µM
CC[C@H](C)[C@H](NC(=O)[C@H](C)NC(=O)[C@@H]1CCCN1C(=O)[C@@H](NC(=O)[C@@H](NC(=O)[C@H](CCCCN)NC(=O)[C@H](C)NC(=O)[C@H](C)NC(=O)[C@@H](NC(=O)[C@H](CCCCN)NC(=O)[C@H](C)NC(=O)[C@H](CC(C)C)NC(=O)[C@@H](NC(=O)CNC(=O)[C@H](Cc1ccccc1)NC(=O)[C@H](CC(C)C)NC(=O)CN)C(C)C)C(C)C)C(C)C)C(C)C)C(=O)N[C@@H](C)C(=O)N[C@@H](CCC(=O)O)C(=O)N[C@@H](Cc1cnc[nH]1)C(=O)N[C@@H](Cc1ccccc1)C(N)=O [GLFGVLAKVAAKVVPAIAEHF],MIC,[8],8 µM
same,MIC,[9],16 µM
same,MIC,[10],≥ 32 µM
same,MIC,[11],8 µM
CC[C@H](C)[C@H](N)C(=O)N[C@@H](CC(C)C)C(=O)N1CCC[C@H]1C(=O)N[C@@H](Cc1c[nH]c2ccccc12)C(=O)N[C@@H](CCCCN)C(=O)N[C@@H](Cc1c[nH]c2ccccc12)C(=O)N1CCC[C@H]1C(=O)N[C@@H](Cc1c[nH]c2ccccc12)C(=O)N[C@@H](Cc1c[nH]c2ccccc12)C(=O)N1CCC[C@H]1C(=O)N[C@@H](Cc1c[nH]c2ccccc12)C(=O)N[C@@H](CCCNC(=N)N)C(=O)N[C@@H](CCCNC(=N)N)C(=O)O [ILPWKWPWWPWRR],MIC,[12],16.8 µM
same,MIC,[13],16.8 µM
same,MIC,[14],≥ 33.6 µM
same,MIC,[15],0.524 µM
same,MIC,[16],4.19 µM
same,MIC,[17],1.6 µM
same,MIC,[18],≥ 33.6 µM
same,MIC,[19],> 105 µM
same,MIC,[20],≥ 33.6 µM
same,MIC,[21],≥ 33.6 µM
same,MIC,[22],≥ 33.6 µM
same,MIC,[23],5.24 µM
same,MIC,[24],1.05 µM
CC[C@H](C)[C@H](NC(=O)[C@H](Cc1c[nH]c2ccccc12)NC(=O)[C@@H]1CCCN1C(=O)[C@H](CCCCN)NC(=O)[C@H](CCSC)NC(=O)[C@H](C)NC(=O)[C@@H](N)CCCCN)C(=O)N[C@@H](CCC(N)=O)C(=O)N1CCC[C@H]1C(=O)N[C@@H](CCCCN)C(=O)N[C@H](C(=O)N[C@@H](CCCCN)C(=O)N[C@H](C(=O)N[C@H](C(=O)N1CCC[C@H]1C(=O)N[C@@H](Cc1ccc(O)cc1)C(=O)N[C@H](C(=O)N[C@@H](CCCN=C(N)N)C(=O)N[C@@H](Cc1ccc(O)cc1)C(=O)N[C@@H](CC(C)C)C(=O)O)C(C)C)[C@@H](C)CC)C(C)C)[C@@H](C)O [KAMKPWIQPKTKVIPYVRYL],MIC,[25],≥ 39.1 µM
same,MIC,[26],≥ 39.1 µM
CC[C@H](C)[C@H](NC(=O)[C@H](CCSC)NC(=O)[C@H](CCCCN)NC(=O)CNC(=O)[C@H](C)NC(=O)[C@H](Cc1cnc[nH]1)NC(=O)[C@H](Cc1ccccc1)NC(=O)[C@H](CC(C)C)NC(=O)CNC(=O)[C@H](CCCCN)NC(C)=O)C(=O)N[C@@H](Cc1cnc[nH]1)C(N)=O [KGLFHAGKMIH],MIC,[5],≥ 80.7 µM
same,MIC,[6],≥ 80.7 µM
CC[C@H](C)[C@H](NC(=O)[C@H](CCCCN)NC(=O)[C@H](CCCCN)NC(=O)[C@H](Cc1ccccc1)NC(=O)[C@H](CC(C)C)NC(=O)[C@H](CCCCN)NC(=O)[C@H](Cc1c[nH]c2ccccc12)NC(=O)[C@@H](N)CCCCN)C(=O)N[C@@H](CCCCN)C(=O)N[C@@H](Cc1ccccc1)C(=O)N[C@@H](CC(C)C)C(=O)N[C@@H](Cc1cnc[nH]1)C(=O)N[C@@H](CO)C(=O)N[C@@H](C)C(=O)N[C@@H](CCCCN)C(=O)N[C@@H](CCCCN)C(=O)N[C@@H](Cc1ccccc1)C(N)=O [KWKLFKKIKFLHSAKKF],MIC,[27],1.56 µM
same,MIC,[28],6.25 µM
same,MIC,[29],1.56 µM
same,MIC,[30],0.78 µM
same,MIC,[31],3.12 µM
same,MIC,[32],0.78 µM
CC[C@H](C)[C@H](NC(=O)[C@H](CC(C)C)NC(=O)[C@@H](N)CC(C)C)C(=O)N[C@@H](C)C(=O)N[C@@H](C)C(=O)N[C@@H](Cc1ccccc1)C(=O)N[C@@H](CCCCN)C(=O)N[C@@H](CCCCN)C(=O)N[C@@H](CC(C)C)C(=O)N[C@H](C(=O)N[C@@H](CCCCN)C(=O)N[C@@H](CCCCN)C(N)=O)C(C)C [LLIAAFKKLVKK],MIC,[12],≥ 72.9 µM
same,MIC,[13],≥ 72.9 µM
same,MIC,[14],≥ 72.9 µM
same,MIC,[15],14.6 µM
same,MIC,[18],29.2 µM
same,MIC,[20],29.2 µM
same,MIC,[21],29.2 µM
same,MIC,[22],29.2 µM
same,MIC,[24],29.2 µM
CC[C@H](C)[C@H](NC(=O)[C@H](CCCN=C(N)N)NC(=O)[C@H](CCCN=C(N)N)NC(=O)[C@@H]1CCCN1C(=O)[C@@H]1CCCN1C(=O)[C@H](Cc1cnc[nH]1)NC(=O)[C@@H]1CCCN1C(=O)[C@H](CCCN=C(N)N)NC(=O)[C@@H]1CCCN1C(=O)[C@H](CC(C)C)NC(=O)[C@H](Cc1ccc(O)cc1)NC(=O)[C@@H]1CCCN1C(=O)[C@@H]1CCCN1C(=O)[C@H](CCCCN)NC(=O)[C@H](CC(=O)O)NC(=O)[C@@H](N)C(C)C)C(=O)N[C@@H](Cc1ccc(O)cc1)C(=O)N[C@@H](CC(N)=O)C(=O)N[C@@H](CC(N)=O)C(=O)N[C@@H](CCCN=C(N)N)C(=O)O [VDKPPYLPRPHPPRRIYNNR],MIC,[33],25.7 µM
same,MIC,[34],12.9 µM
